Test results reported in patent US7968556B2, “Heteroaryl compounds, compositions thereof, and methods of treatment therewith” (Signal Pharmaceuticals, LLC, priority 2006, dated 2011).

Molecular target: T1, IKK-2 (Homo sapiens, UniProt O14920, S177E/S181E)
T1 sequence (O14920 1-756 S177E/S181E): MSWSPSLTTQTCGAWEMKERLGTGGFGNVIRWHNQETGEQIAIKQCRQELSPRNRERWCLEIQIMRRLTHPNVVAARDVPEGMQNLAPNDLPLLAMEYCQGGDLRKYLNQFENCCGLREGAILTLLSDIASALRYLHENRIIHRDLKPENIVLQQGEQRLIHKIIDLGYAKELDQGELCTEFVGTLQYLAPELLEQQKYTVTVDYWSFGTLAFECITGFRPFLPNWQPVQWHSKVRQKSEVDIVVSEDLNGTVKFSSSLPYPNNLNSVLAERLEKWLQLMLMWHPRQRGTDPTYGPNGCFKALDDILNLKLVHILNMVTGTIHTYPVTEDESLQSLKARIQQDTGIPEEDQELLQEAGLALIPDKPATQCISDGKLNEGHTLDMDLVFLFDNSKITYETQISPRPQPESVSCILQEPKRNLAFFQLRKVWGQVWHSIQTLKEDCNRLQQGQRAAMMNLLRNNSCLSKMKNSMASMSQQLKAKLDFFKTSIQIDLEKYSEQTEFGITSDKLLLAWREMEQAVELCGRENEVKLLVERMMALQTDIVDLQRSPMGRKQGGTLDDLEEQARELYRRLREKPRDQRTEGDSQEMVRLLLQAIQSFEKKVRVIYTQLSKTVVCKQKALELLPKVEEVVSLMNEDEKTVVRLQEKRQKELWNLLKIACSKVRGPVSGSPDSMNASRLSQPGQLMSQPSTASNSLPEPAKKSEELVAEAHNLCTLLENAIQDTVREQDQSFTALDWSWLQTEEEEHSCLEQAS
Assay: IKK-2 screening assay (IKK2EE 33P Assay / IKK2EE NEMO HTRF Assay)
Format: biochemical
Experimental: The following is an example of an assay that can be used to determine the IKK2EE inhibitory activity of a test compound.
A reaction buffer (pH 7.8) is prepared containing HEPES (20 mM), MgCl2 (10 mM), EDTA (0.1 mM), DTT (1 mM) and Triton X-100 (0.004%). IKK2EE (0.75 μg/ml is used. GST-IKBα (50 μg/ml) is used as substrate. Adenosine 5′-triphosphate (1.5 μM with ^33P-ATP 5 nCi/μl) is used. Reactions are stopped with trichloroacetic acid (6.25%).
Appropriate amounts of test compounds or controls in 100% DMSO are added to the assay plate. A peptide-substrate solution (PSS) is prepared by adding peptide stock to an appropriate volume of buffer (peptide concentration in the PSS will be about 100 μg/ml). An enzyme-peptide solution (EPS) is prepared by adding enzyme stock to an appropriate volume of PSS (the enzyme concentration in the EPS will be about 1 μg/ml). An ATP solution is prepared by adding ATP stock to an appropriate volume of buffer (the ATP concentration will be 15 μM).
85 μl of EPS is added to the assay wells (or PSS to positive control wells) of 96 well polypropylene plates. The ATP solution is then completed by adding ^33P-ATP (to a final concentration of 50 μCi/ml).
The reaction is initiated by adding 10 μl ATP solution to each well. Plates are shaken from about 12 seconds and allowed to incubate at room temperature for 1 hours. 100 μl of trichloroacetic acid solution (12.5%) is added to stop the reaction and the plates are incubated at room temperature for at least 10 minutes. The assay plates are harvested onto a Millipore Multiscreen harvest Plate FC using an appropriate harvester and the harvest plates are washed with 1×PBS solution for about 10 seconds (continuous flow). Harvest plates are allowed to dry thoroughly and the bottoms of the plates are sealed. 20-50 μl of Microscint20 is added to each well, tops are sealed and plates are read using an appropriate scintillation counter.
A reaction buffer (pH 7.6) is prepared containing HEPES (20 mM), MgCl2 (10 mM), EDTA (0.05 mM), DTT (1 mM) and Triton X-100 (0.004%). IKK2EE-NEMO (0.7 μg/ml is used. GST-IKBα (0.5 μg/ml) is used as substrate. Adenosine 5′-triphosphate (1.5 μM) is used. Detection reagents used are mouse anti-P-IKBα (30 ng/ml), Eu anti-mouse (300 ng/ml) and Cy5 anti-GST (11.5 μg/ml). Reactions are stopped with EDTA (20 mM).
An enzyme solution (ES) is prepared by adding enzyme stock to an appropriate volume of buffer (enzyme concentration in the ES will be about 1.7 ng/ml). A detection mixture (DM) is prepared by adding ATP (final conc. 3.75 μM), mouse anti-P-IKBα (final conc. 75 ng/ml), GST-IKBα (final conc. 1.26 μg/ml), Eu anti-mouse in buffer (final conc. 750 ng/ml).
5 μl of compound (solvated in 10% DMSO) is added to assay wells (or 10% DMSO to control wells) of low binding reaction plates. […] ES is added to assay wells (or buffer to control wells) and the reaction is initiated by adding 10 μl DM to all wells. Plates are incubated at room temperature for 45 minutes. Stop mixture is prepared by adding EDTA (final conc. 70 mM) and Cy5 anti-GST (final conc. 40 μg/ml) to an appropriate volume of buffer. Stop mixture is added and plates are shaken for 20 seconds and incubated at room temperature for at least 3 hours (preferably in the dark). Plates are read on an Analyst HT using Multi-Method HTRF.

IC50 [µM] | SMILES
> 30 | COc1ccccc1-n1c(=O)[nH]c2c(C(N)=O)nc(-c3ccc(O)cc3)nc21 [Compound 8, 2-(4-hydroxyphenyl)-9-(2-methoxyphenyl)-8-oxo-8,9-dihydro-7H-purine-6-carboxamide]
> 30 | COc1ccccc1-n1c(=O)[nH]c2c(C(N)=O)nc(-c3ccnc(O)c3)nc21 [Compound 13, 2-(2-hydroxypyridin-4-yl)-9-(2-methoxyphenyl)-8-oxo-8,9-dihydro-7H-purine-6-carboxamide]
0.1 to 5 | NC(=O)c1nc(-c2cccnc2)nc2c1[nH]c(=O)n2[C@H]1CC[C@H](O)CC1 [Compound 50, 9-(trans-4-Hydroxycyclohexyl)-8-oxo-2-(pyridin-3-yl)-8,9-dihydro-7H-purine-6-carboxamide]
